Data published in PubChem BioAssay AID248 (DTP/NCI, 2004).
“And” between values parts separate entries of the source, which are not always exact repeats. Equal entries are not always repeated. Toxic doses and inconclusive results are not listed.

Test system: L1210 leukemia ip in BDF1 mice, survival T/C
Assay: NCI In Vivo Anticancer Drug Screen. Data for tumor model L1210 Leukemia (intraperitoneal) in B6D2F1 (BDF1) mice
Conditions: endpoint: mean survival time, higher = longer survival
Method in brief: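 Antitumor effect is assessed in tumor-bearing animals. Survival in the compound arm is compared with a vehicle-dosed control arm and expressed as their quotient.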

[1] = dose: 100.0 mg/kg/injection, schedule: Q01DX009 (ip), vehicle: saline with Tween-80
[2] = dose: 100.0 mg/kg/injection, schedule: Q04DX003 (ip), vehicle: saline
[3] = dose: 200.0 mg/kg/injection, schedule: Q01DX009 (ip), vehicle: saline with Tween-80
[4] = dose: 400.0 mg/kg/injection, schedule: Q01DX009 (ip), vehicle: saline with Tween-80
[5] = dose: 100.0 mg/kg/injection, schedule: Q01DX009 (ip), vehicle: Klucel (hydroxypropylcellulose) (HPC)
[6] = dose: 200.0 mg/kg/injection, schedule: Q01DX009 (ip), vehicle: Klucel (hydroxypropylcellulose) (HPC)
[7] = dose: 2.5 mg/kg/injection, schedule: Q01DX009 (ip), vehicle: saline
[8] = dose: 100.0 mg/kg/injection, schedule: Q01DX001 (ip), vehicle: saline
[9] = dose: 100.0 mg/kg/injection, schedule: Q04DX003 (ip), vehicle: Klucel (hydroxypropylcellulose) (HPC)
[10] = dose: 200.0 mg/kg/injection, schedule: Q04DX003 (ip), vehicle: Klucel (hydroxypropylcellulose) (HPC)
[11] = dose: 400.0 mg/kg/injection, schedule: Q04DX003 (ip), vehicle: Klucel (hydroxypropylcellulose) (HPC)

Structure (SMILES): Cc1ccc(Cl)cc1NC(=O)OCCCl
- T/C [1]: 95 % of control
- T/C [2]: 97 % of control
- T/C [3]: 91 % of control
- T/C (dose: 200.0 mg/kg/injection, schedule: Q04DX003 (ip), vehicle: saline): 100 % of control
- T/C [4]: 91 % of control
- T/C (dose: 400.0 mg/kg/injection, schedule: Q04DX003 (ip), vehicle: saline): 95 % of control

Structure (SMILES): CCCCCCCCO/N=C\c1c2c(O)c3c(O)c(C)c4c(c3c1O)C(=O)C(C)(O/C=C\C(OC)C(C)C(OC(C)=O)C(C)C(O)C(C)C(O)C(C)/C=C\C=C(\C)C(=O)N2)O4 (stereo not given)
- T/C (dose: 50.0 mg/kg/injection, schedule: Q04DX003 (ip), vehicle: water): 96 % of control
- T/C [5]: 106 % of control
- T/C (dose: 100.0 mg/kg/injection, schedule: Q04DX003 (ip), vehicle: water): 100 % of control
- T/C [6]: 89 % of control
- T/C (dose: 200.0 mg/kg/injection, schedule: Q04DX003 (ip), vehicle: water): 98 % of control
- T/C (dose: 400.0 mg/kg/injection, schedule: Q04DX003 (ip), vehicle: water): 104 % of control

Structure (SMILES): CC1C(O)C(O)CC2COCC21 (stereo not given)
- T/C (dose: 100.0 mg/kg/injection, schedule: Q01DX001 (ip), vehicle: saline sonified): 91 % of control
- T/C (dose: 200.0 mg/kg/injection, schedule: Q01DX001 (ip), vehicle: saline sonified): 107 % of control
- T/C (dose: 400.0 mg/kg/injection, schedule: Q01DX001 (ip), vehicle: saline sonified): 113 % of control

Structure (SMILES): CC(=O)OC1CCC(NC(=O)N(CCCl)N=O)CC1 (stereo not given)
- T/C (dose: 15.0 mg/kg/injection, schedule: Q01DX001 (ip), vehicle: other): 225 % of control
- T/C (dose: 30.0 mg/kg/injection, schedule: Q01DX001 (ip), vehicle: other): 352 % of control
- T/C (dose: 62.0 mg/kg/injection, schedule: Q01DX001 (ip), vehicle: other): 244 % of control

Structure (SMILES): Cn1cnc([N+](=O)[O-])c1Sc1nc(N)nc2c1ncn2C1OC(CO)C(O)C1O (stereo not given)
- T/C (dose: 0.94 mg/kg/injection, schedule: Q01DX Z (ip), vehicle: methylcellulose (MC)): 121 % of control
- T/C (dose: 1.88 mg/kg/injection, schedule: Q01DX Z (ip), vehicle: methylcellulose (MC)): 121 % of control
- T/C (dose: 3.75 mg/kg/injection, schedule: Q01DX Z (ip), vehicle: methylcellulose (MC)): 116 % of control
- T/C (dose: 7.5 mg/kg/injection, schedule: Q01DX Z (ip), vehicle: methylcellulose (MC)): 116 % of control
- T/C (dose: 15.0 mg/kg/injection, schedule: Q01DX Z (ip), vehicle: methylcellulose (MC)): 103 % of control

Structure (SMILES): O=C(CCN1CCCC1)c1ccc2ccccc2c1
- T/C (dose: 25.0 mg/kg/injection, schedule: Q04DX002 (ip), vehicle: saline with Tween-80): 97 % of control
- T/C (dose: 50.0 mg/kg/injection, schedule: Q04DX002 (ip), vehicle: saline with Tween-80): 97 % of control
- T/C (dose: 100.0 mg/kg/injection, schedule: Q04DX002 (ip), vehicle: saline with Tween-80): 100 % of control and 86 % of control

Structure (SMILES): OC1C2CCC(CC2)C1O (stereo not given)
- T/C (dose: 4.5 mg/kg/injection, schedule: Q01DX009 (ip), vehicle: saline with Tween-80): 92 % of control
- T/C (dose: 4.5 mg/kg/injection, schedule: Q04DX003 (ip), vehicle: other): 108 % of control
- T/C (dose: 9.0 mg/kg/injection, schedule: Q01DX009 (ip), vehicle: saline with Tween-80): 92 % of control
- T/C (dose: 9.0 mg/kg/injection, schedule: Q04DX003 (ip), vehicle: other): 101 % of control
- T/C (dose: 9.75 mg/kg/injection, schedule: Q01DX001 (ip), vehicle: other): 104 % of control
- T/C (dose: 18.0 mg/kg/injection, schedule: Q01DX009 (ip), vehicle: saline with Tween-80): 86 % of control
- T/C (dose: 18.0 mg/kg/injection, schedule: Q04DX003 (ip), vehicle: other): 106 % of control
- T/C (dose: 18.5 mg/kg/injection, schedule: Q01DX001 (ip), vehicle: other): 107 % of control

Structure (SMILES): c1csc(CNCCN2CC2)c1
- T/C [7]: 89 % of control
- T/C (dose: 2.5 mg/kg/injection, schedule: Q04DX003 (ip), vehicle: saline): 95 % of control
- T/C (dose: 5.0 mg/kg/injection, schedule: Q04DX003 (ip), vehicle: saline): 103 % of control
- T/C (dose: 10.0 mg/kg/injection, schedule: Q04DX003 (ip), vehicle: saline): 100 % of control

Structure (SMILES): O=C(O)c1nc(SCc2ccccc2)n(Cc2ccccc2)c1C(=O)O
- T/C (dose: 100.0 mg/kg/injection, schedule: Q04DX002 (ip), vehicle: carboxymethylcellulose (CMC)): 97 % of control and 89 % of control
- T/C (dose: 100.0 mg/kg/injection, schedule: Q04DX003 (ip), vehicle: carboxymethylcellulose (CMC)): 94 % of control and 97 % of control
- T/C (dose: 200.0 mg/kg/injection, schedule: Q04DX002 (ip), vehicle: carboxymethylcellulose (CMC)): 94 % of control and 115 % of control
- T/C (dose: 200.0 mg/kg/injection, schedule: Q04DX003 (ip), vehicle: carboxymethylcellulose (CMC)): 97 % of control and 98 % of control
- T/C (dose: 400.0 mg/kg/injection, schedule: Q04DX002 (ip), vehicle: carboxymethylcellulose (CMC)): 97 % of control and 87 % of control
- T/C (dose: 400.0 mg/kg/injection, schedule: Q04DX003 (ip), vehicle: carboxymethylcellulose (CMC)): 96 % of control

Structure (SMILES): CC(C)(C)C1CCC2(CC1)CCN(CCCN1CCCCCC1)CC2
- T/C (dose: 50.0 mg/kg/injection, schedule: Q01DX001 (ip), vehicle: saline): 96 % of control
- T/C [8]: 107 % of control

Structure (SMILES): CCN1C(C)C1C(C)C (stereo not given)
- T/C (dose: 25.0 mg/kg/injection, schedule: Q01DX009 (ip), vehicle: Klucel (hydroxypropylcellulose) (HPC)): 105 % of control
- T/C (dose: 50.0 mg/kg/injection, schedule: Q01DX009 (ip), vehicle: Klucel (hydroxypropylcellulose) (HPC)): 107 % of control
- T/C [5]: 109 % of control
- T/C [9]: 117 % of control

Structure (SMILES): CC1(C)CC(=O)CCS1
- T/C [5]: 102 % of control
- T/C [9]: 105 % of control
- T/C [6]: 96 % of control
- T/C [10]: 98 % of control
- T/C (dose: 400.0 mg/kg/injection, schedule: Q01DX009 (ip), vehicle: Klucel (hydroxypropylcellulose) (HPC)): 104 % of control
- T/C [11]: 100 % of control

Structure (SMILES): OC1(Cc2ccccc2)CCCCC1
- T/C (dose: 100.0 mg/kg/injection, schedule: Q01DX001 (ip), vehicle: other): 102 % of control
- T/C (dose: 100.0 mg/kg/injection, schedule: Q04DX003 (ip), vehicle: saline with Tween-80): 102 % of control
- T/C (dose: 200.0 mg/kg/injection, schedule: Q01DX001 (ip), vehicle: other): 110 % of control
- T/C (dose: 200.0 mg/kg/injection, schedule: Q04DX003 (ip), vehicle: saline with Tween-80): 104 % of control
- T/C (dose: 400.0 mg/kg/injection, schedule: Q01DX001 (ip), vehicle: other): 118 % of control
- T/C (dose: 400.0 mg/kg/injection, schedule: Q04DX003 (ip), vehicle: saline with Tween-80): 102 % of control

Structure (SMILES): O=C(NC(=O)C(Cl)Cl)OC1c2cc(Cl)ccc2-c2c(Cl)cc(Cl)cc21 (stereo not given)
- T/C (dose: 100.0 mg/kg/injection, schedule: Q01DX001 (ip), vehicle: Klucel (hydroxypropylcellulose) (HPC)): 90 % of control
- T/C [5]: 95 % of control
- T/C [9]: 91 % of control
- T/C (dose: 200.0 mg/kg/injection, schedule: Q01DX001 (ip), vehicle: Klucel (hydroxypropylcellulose) (HPC)): 98 % of control
- T/C [6]: 89 % of control
- T/C [10]: 91 % of control
- T/C (dose: 400.0 mg/kg/injection, schedule: Q01DX001 (ip), vehicle: Klucel (hydroxypropylcellulose) (HPC)): 88 % of control
- T/C [11]: 88 % of control

Structure (SMILES): CS(=O)(=O)C(=Cc1ccccc1Cl)S(C)(=O)=O
- T/C [1]: 92 % of control
- T/C [3]: 100 % of control
- T/C [4]: 101 % of control

Structure (SMILES): COC1CN(C(C)(C)C)C1
- T/C [2]: 103 % of control

Structure (SMILES): CC(CCCN(CCCl)CCCl)Nc1c2ccccc2nc2c1ccc1ccccc12 (stereo not given)
- T/C (dose: 0.15 mg/kg/injection, schedule: Q01DX009 (ip), vehicle: saline): 109 % of control
- T/C (dose: 0.31 mg/kg/injection, schedule: Q01DX009 (ip), vehicle: saline): 110 % of control
- T/C (dose: 0.63 mg/kg/injection, schedule: Q01DX009 (ip), vehicle: saline): 122 % of control
- T/C (dose: 1.25 mg/kg/injection, schedule: Q01DX009 (ip), vehicle: saline): 94 % of control
- T/C [7]: 106 % of control

Structure (SMILES): CNCCOC(=O)c1cc([N+](=O)[O-])c(C)s1
- T/C [8]: 94 % of control
- T/C (dose: 200.0 mg/kg/injection, schedule: Q01DX001 (ip), vehicle: saline): 103 % of control
- T/C (dose: 400.0 mg/kg/injection, schedule: Q01DX001 (ip), vehicle: saline): 100 % of control

Structure (SMILES): O=C1N(Cc2ccccc2)C(=O)C(Cc2ccccc2)(Cc2ccccc2)C(=O)N1Cc1ccccc1
- T/C (dose: 100.0 mg/kg/injection, schedule: Q01DX001 (ip), vehicle: carboxymethylcellulose (CMC)): 101 % of control
- T/C (dose: 200.0 mg/kg/injection, schedule: Q01DX001 (ip), vehicle: carboxymethylcellulose (CMC)): 97 % of control
- T/C (dose: 400.0 mg/kg/injection, schedule: Q01DX001 (ip), vehicle: carboxymethylcellulose (CMC)): 95 % of control
